Remaining activity data for 19 molecules are collected here from publication PMC8286840, “Identifying SARS-CoV-2 antiviral compounds by screening for small molecule inhibitors of Nsp3 papain-like protease” (Biochemical Journal, 2021).

The structures appear in SMILES notation. Read-outs that look alike come from different tables or passages of the source.

The target of assay [1] is T1, SARS-CoV-2 PLpro (nsp3 1564–1878) (Severe acute respiratory syndrome coronavirus 2, UniProt P0DTD1). The assay is described as follows: biochemical. Details: FRET-quenched peptide (Pro3) cleavage by PLpro, 10 min pre-incubation, slope over 20 min, normalised to no-compound control. The note with it: low concentration screen, read-out: % of control remaining.
Assay [2] deals with T1, SARS-CoV-2 PLpro (nsp3 1564–1878). The assay is described as follows: biochemical. The conditions noted are these: high concentration screen, read-out: % of control remaining. Details: FRET-quenched peptide (Pro3) cleavage by PLpro, 10 min pre-incubation, slope over 20 min, normalised to no-compound control.

In the case of `CNC(=O)c1c(F)cccc1Nc1nc(Nc2cc3c(ccn3C(=O)CN(C)C)cc2OC)nc2[nH]ccc12` [GSK1838705A], in assay [1] (Well no.=5310), the remaining activity at 1.25 µM worked out at 98%. Further, in assay [2] (Well no.=5310), the remaining activity at 3.75 µM was found to be 92%.
In the case of `CCc1cc(Nc2nccc(-c3c(-c4ccc(OC)c(C(=O)Nc5c(F)cccc5F)c4)nc4ccccn34)n2)c(OC)cc1N1CCC(N2CCN(S(C)(=O)=O)CC2)CC1` [GSK1904529A], in assay [1] (Well no.=5013), the remaining activity at 1.25 µM is 89.7%. Besides, the remaining activity at 3.75 µM in assay [2] (Well no.=5013) was 89.5%.
Take `COc1ncc(-c2ccc3nccc(-c4ccnnc4)c3c2)cc1NS(=O)(=O)c1ccc(F)cc1F` [GSK2126458]: the remaining activity at 1.25 µM in assay [1] (Well no.=5308) came out at 95.7%. In addition, the remaining activity at 3.75 µM in assay [2] (Well no.=5308) stood at 94.1%.
On to `CNc1nc(-c2ccc3c(N)n[nH]c3c2)cc(N2C[C@@H](C(=O)NC3CCCCC3)CC[C@H]2C)n1` [GSK2334470], for which the remaining activity at 1.25 µM in assay [1] (Well no.=5464) is 94.9%. In addition, in assay [2] (Well no.=5464), the remaining activity at 3.75 µM came to 101%.
Turning to `Cc1c(Cn2c(C)nc3c(C(=O)O)cc(N4CCOCC4)cc32)cccc1C(F)(F)F` [GSK2636771], the remaining activity at 1.25 µM in assay [1] (Well no.=5178) is 93.1%. Besides, the remaining activity at 3.75 µM in assay [2] (Well no.=5178) came out at 96.9%.
Consider `CCc1ccc(N(CC(C)C)S(=O)(=O)c2ccc(OCC3CCOCC3)c(CO)c2)cc1` [GSK2981278], for which the remaining activity at 1.25 µM in assay [1] (Well no.=8561) was determined as 105%. Moreover, the remaining activity at 3.75 µM in assay [2] (Well no.=8561) amounted to 101%.
For `CN1C(=O)[C@@H](NC(=O)c2n[nH]c(Cc3ccccc3)n2)COc2ccccc21` [GSK2982772], the remaining activity at 1.25 µM in assay [1] (Well no.=7074) was 96.7%. The remaining activity at 3.75 µM in assay [2] (Well no.=7074) came to 95.1%.
In the case of `O=C(O)c1ccc(-c2c[nH]c3ncc(-c4ccccc4)cc23)cc1C1CCCC1` [GSK 650394 - 2-Cyclopentyl-4-(5-phenyl-1H-pyrrolo[2,3-b]pyridin-3-yl-benzoic acid], the remaining activity at 1.25 µM in assay [1] (Well no.=2676) stood at 96.9%. For the same molecule, the remaining activity at 3.75 µM in assay [2] (Well no.=2676) turned out to be 99.7%.
With `CN1C(=O)[C@@H](NC(=O)c2cc(Cc3ccccc3)on2)COc2ccccc21` [GSK'481], the remaining activity at 1.25 µM in assay [1] (Well no.=6534) was determined as 104%. In addition, in assay [2] (Well no.=6534), the remaining activity at 3.75 µM was determined as 98.7%.
As for `Cn1c(O)c(-c2[nH]c3ccccc3c2N=O)c2ccc(Br)cc21` [GSK-3 Inhibitor IX, Control, MeBIO], in assay [1] (Well no.=2427), the remaining activity at 1.25 µM stood at 106%. The remaining activity at 3.75 µM in assay [2] (Well no.=2427) was 108%.
`O=Nc1c(-c2c(O)[nH]c3cc(Br)ccc23)[nH]c2ccccc12` [GSK-3 Inhibitor IX]: the remaining activity at 1.25 µM in assay [1] (Well no.=2466) was 95.8%. Further, the remaining activity at 3.75 µM in assay [2] (Well no.=2466) was found to be 98.6%.
With `Cc1cc(Nc2nc(-c3ccccc3)nc3ccccc23)n[nH]1` [GSK-3 Inhibitor XIII], the remaining activity at 1.25 µM in assay [1] (Well no.=2502) came to 94.8%. For the same molecule, the remaining activity at 3.75 µM in assay [2] (Well no.=2502) was 96.8%.
Consider `CC(=O)O/N=C1/C(c2c(O)[nH]c3cc(Br)ccc23)=Nc2ccccc21` [GSK-3 Inhibitor X], for which the remaining activity at 1.25 µM in assay [1] (Well no.=2468) came out at 101%. Further, the remaining activity at 3.75 µM in assay [2] (Well no.=2468) was 105%.
Take `Cn1sc(=O)n(Cc2ccccc2)c1=O` [GSK-3b Inhibitor I]: the remaining activity at 1.25 µM in assay [1] (Well no.=2460) was determined as 106%. The remaining activity at 3.75 µM in assay [2] (Well no.=2460) was 108%.
On to `O=C1NC(=O)C(c2cn(CCCO)c3ncccc23)=C1c1cnccn1` [GSK-3b Inhibitor XI], for which the remaining activity at 1.25 µM in assay [1] (Well no.=2470) was 101%. The remaining activity at 3.75 µM in assay [2] (Well no.=2470) was 102%.
With `CC(C)S(=O)(=O)c1ccc2nccc(Nc3ccc4scnc4c3)c2c1` [GSK-872], the remaining activity at 1.25 µM in assay [1] (Well no.=6584) is 96.3%. Further, the remaining activity at 3.75 µM in assay [2] (Well no.=6584) came to 108%.
As for `CCOC(=O)CCNc1cc(N2CCc3ccccc3CC2)nc(-c2ccccn2)n1` [GSK-J4], the remaining activity at 1.25 µM in assay [1] (Well no.=5779) worked out at 106%. Besides, the remaining activity at 3.75 µM in assay [2] (Well no.=5779) was 106%.
Take `c1ccc(-c2n[nH]c3c2oc2ccccc23)cc1` [GTP-14564]: the remaining activity at 1.25 µM in assay [1] (Well no.=2417) is 104%. In addition, the remaining activity at 3.75 µM in assay [2] (Well no.=2417) came out at 105%.
For `Cc1cc(SCc2sc(-c3ccc(C(F)(F)F)c(F)c3)nc2C)ccc1OCC(=O)O` [GW0742], the remaining activity at 1.25 µM in assay [1] (Well no.=5214) was found to be 100%. Also, in assay [2] (Well no.=5214), the remaining activity at 3.75 µM was 98.5%.
